# Reference: PMC3626250, “Effects of Borneol on Pharmacokinetics and Tissue Distribution of Notoginsenoside R1 and Ginsenosides Rg1 and Re in Panax notoginseng in Rabbits” (Journal of Analytical Methods in Chemistry, 2013)
# Like-named read-outs stand apart in the source and are kept apart here.
# Assays:
# [1] = Stability in plasma samples and tissue homogenates of rabbits; format: physicochemical
# Experimental: The precision of the assay was determined for the quality control (QC) plasma and tissue […] Intraday precision and accuracy were determined via repeated analysis of the QC plasma and tissue samples within one day (n = 5). Interday precision and accuracy were determined via repeated analysis on five consecutive days. The concentration of each sample was determined using the prepared calibration curve and analyzed on the same day. All stabilities were evaluated at different concentration levels. Short-term stability of NGR1, GRg1, and GRe were assessed by analyzing QC samples kept at 4°C for 4–24 h. Freeze-thaw stability was evaluated at three consecutive freeze-thaw cycles. Long-term stability was studied by analyzing samples during a period of 8 weeks of storage at −70°C.
# The stability studies were performed by evaluating small variations in three different conditions.
# [2] = test system: vinblastine-selected Caco-2 cells; test: Transport studies across Caco-2 monolayers (P app, efflux ratio); format: in vitro ADME; details: for increase of P app (apical-to-basolateral) by Borneol / increase of P app (basolateral-to-apical) by Borneol: 200 μM Borneol, Caco-2; for P app values: Caco-2 monolayers, without Borneol; for substrate of P-gp: concluded from efflux ratio in vinblastine-selected Caco-2 cells
# Experimental: (§1) Medium was replaced every 2-3 days. […] The vinblastine-selected Caco-2 cells were cultivated in the presence of 10 nM vinblastine to induce P-glycoprotein (P-gp) expression. […] Prior to the transport study, cytotoxicity of NGR1, GRg1, GRe, and Borneol toward Caco-2 cells was determined using MTT assays.
# (§2) In transport studies, vinblastine-selected Caco-2 cells were seeded on polycarbonate filter of transwells for 18–21 days before starting transport study, and the monolayers with the transepithelial electrical resistance (TEER) values greater than 300 Ωcm^2 were used. Caco-2 monolayers were rinsed twice with Hanks' balanced salt solution (HBSS) and preincubated in HBSS at 37°C for 30 min before starting experiments. To start the experiments, 500 μM of NGR1, GRg1, and GRe in final concentrations were added to the donor side with or without 200 μM Borneol and then incubated at 37°C. […] After each sampling, 0.1 mL of HBSS was added to the receiver chamber to maintain a constant volume. All the experiments were performed five times in duplicate. The collected samples were stored at −20°C until HPLC analysis. During the above transport studies, the TEER values were also monitored before and at the end of each experiment. Apparent permeability coefficients (P app) were then calculated according to the following equation: (1) Papp=(dC/dt×V)/(A×C0), where dC/dt is the rate of the test compound appearing in the receiver chamber, V is the volume of the solution in the receiver chamber, A is the cell monolayer surface area, and C 0 is the initial concentration of the test compound added in the donor chamber.
# (§3) The efflux ratio (Er) was calculated using the following equation: (2) Er=Papp(basolateral-apical)/Papp(apical-basolateral).
# Caco-2 cells = test: MTT cytotoxicity assay toward Caco-2 cells; format: cell-based; details: chosen for transport study
# Experimental: The Caco-2 cells were cultured in Dulbecco's modified Eagle's medium (DMEM) supplemented with 20% foetal bovine serum, 1% nonessential amino acids and penicillin-streptomycin, at 37°C in an atmosphere with a relative humidity of 95% and a CO2 flow of 5%. Medium was replaced every 2-3 days. When the cell monolayer reached 80% confluence, the cells were detached with a solution of 0.02% EDTA and 0.25% trypsin. The vinblastine-selected Caco-2 cells were cultivated in the presence of 10 nM vinblastine to induce P-glycoprotein (P-gp) expression. The culture medium was changed to a fresh medium without vinblastine 24 h before experiments, and the cells were used between passages 25 and 46. Prior to the transport study, cytotoxicity of NGR1, GRg1, GRe, and Borneol toward Caco-2 cells was determined using MTT assays. Noncytotoxic concentrations of 500 μM NGR1, GRg1, GRe, and 200 μM Borneol (dissolved in DMSO) were chosen for transport study.
# [3] = Transport studies across Caco-2 monolayers (P app, efflux ratio); format: in vitro ADME; details: human
# Experimental: as §1, §2, §3
# [4] = Caco-2 Model, 500 μM compound, with or without 200 μM Borneol (see label)
smiles,measurement,setting,value
"CC(C)=CCC[C@](C)(O[C@@H]1O[C@H](CO)[C@@H](O)[C@H](O)[C@H]1O)[C@H]1CC[C@]2(C)[C@@H]1[C@H](O)C[C@@H]1[C@@]3(C)CC[C@H](O)C(C)(C)[C@@H]3[C@@H](O[C@@H]3O[C@H](CO)[C@@H](O)[C@H](O)[C@H]3O[C@@H]3OC[C@@H](O)[C@H](O)[C@H]3O)C[C@]12C [NGR1, notoginsenoside R1]","Remaining, Short-term stability","[1]; brain homogenate, QC 0.5 μg·mL^−1, 4°C for 4–24 h",92.3 ± 9.4%
same,"Remaining, Long-term stability","[1]; brain homogenate, QC 0.5 μg·mL^−1, 8 weeks at −70°C",101.8 ± 6.8%
same,"Remaining, Freeze-thaw stability","[1]; brain homogenate, QC 0.5 μg·mL^−1, three freeze-thaw cycles",92.8 ± 6.9%
same,"Remaining, Short-term stability","[1]; brain homogenate, QC 5.0 μg·mL^−1, 4°C for 4–24 h",98.4 ± 4.4%
same,"Remaining, Long-term stability","[1]; brain homogenate, QC 5.0 μg·mL^−1, 8 weeks at −70°C",90.0 ± 9.5%
same,"Remaining, Freeze-thaw stability","[1]; brain homogenate, QC 5.0 μg·mL^−1, three freeze-thaw cycles",92.2 ± 8.5%
same,"Remaining, Short-term stability","[1]; brain homogenate, QC 50.0 μg·mL^−1, 4°C for 4–24 h",103.5 ± 9.2%
same,"Remaining, Long-term stability","[1]; brain homogenate, QC 50.0 μg·mL^−1, 8 weeks at −70°C",99.0 ± 5.3%
same,"Remaining, Freeze-thaw stability","[1]; brain homogenate, QC 50.0 μg·mL^−1, three freeze-thaw cycles",95.2 ± 11.4%
same,"Remaining, Short-term stability","[1]; heart homogenate, QC 0.5 μg·mL^−1, 4°C for 4–24 h",98.2 ± 6.7%
same,"Remaining, Long-term stability","[1]; heart homogenate, QC 0.5 μg·mL^−1, 8 weeks at −70°C",103.6 ± 6.5%
same,"Remaining, Freeze-thaw stability","[1]; heart homogenate, QC 0.5 μg·mL^−1, three freeze-thaw cycles",92.8 ± 6.8%
same,"Remaining, Short-term stability","[1]; heart homogenate, QC 5.0 μg·mL^−1, 4°C for 4–24 h",94.8 ± 9.5%
same,"Remaining, Long-term stability","[1]; heart homogenate, QC 5.0 μg·mL^−1, 8 weeks at −70°C",92.9 ± 4.2%
same,"Remaining, Freeze-thaw stability","[1]; heart homogenate, QC 5.0 μg·mL^−1, three freeze-thaw cycles",102.5 ± 10.6%
same,"Remaining, Short-term stability","[1]; heart homogenate, QC 50.0 μg·mL^−1, 4°C for 4–24 h",100.3 ± 7.5%
same,"Remaining, Long-term stability","[1]; heart homogenate, QC 50.0 μg·mL^−1, 8 weeks at −70°C",96.6 ± 6.7%
same,"Remaining, Freeze-thaw stability","[1]; heart homogenate, QC 50.0 μg·mL^−1, three freeze-thaw cycles",96.7 ± 8.7%
same,"Remaining, Short-term stability","[1]; kidney homogenate, QC 0.5 μg·mL^−1, 4°C for 4–24 h",92.4 ± 4.3%
same,"Remaining, Long-term stability","[1]; kidney homogenate, QC 0.5 μg·mL^−1, 8 weeks at −70°C",91.1 ± 5.4%
same,"Remaining, Freeze-thaw stability","[1]; kidney homogenate, QC 0.5 μg·mL^−1, three freeze-thaw cycles",92.2 ± 7.5%
same,"Remaining, Short-term stability","[1]; kidney homogenate, QC 5.0 μg·mL^−1, 4°C for 4–24 h",95.8 ± 5.6%
same,"Remaining, Long-term stability","[1]; kidney homogenate, QC 5.0 μg·mL^−1, 8 weeks at −70°C",94.3 ± 2.8%
same,"Remaining, Freeze-thaw stability","[1]; kidney homogenate, QC 5.0 μg·mL^−1, three freeze-thaw cycles",95.4 ± 8.9%
same,"Remaining, Short-term stability","[1]; kidney homogenate, QC 50.0 μg·mL^−1, 4°C for 4–24 h",90.8 ± 3.7%
same,"Remaining, Long-term stability","[1]; kidney homogenate, QC 50.0 μg·mL^−1, 8 weeks at −70°C",96.8 ± 9.5%
same,"Remaining, Freeze-thaw stability","[1]; kidney homogenate, QC 50.0 μg·mL^−1, three freeze-thaw cycles",80.9 ± 6.7%
same,"Remaining, Short-term stability","[1]; liver homogenate, QC 0.5 μg·mL^−1, 4°C for 4–24 h",95.1 ± 3.1%
same,"Remaining, Long-term stability","[1]; liver homogenate, QC 0.5 μg·mL^−1, 8 weeks at −70°C",92.6 ± 9.1%
same,"Remaining, Freeze-thaw stability","[1]; liver homogenate, QC 0.5 μg·mL^−1, three freeze-thaw cycles",98.9 ± 7.9%
same,"Remaining, Short-term stability","[1]; liver homogenate, QC 5.0 μg·mL^−1, 4°C for 4–24 h",94.3 ± 6.7%
same,"Remaining, Long-term stability","[1]; liver homogenate, QC 5.0 μg·mL^−1, 8 weeks at −70°C",96.6 ± 6.4%
same,"Remaining, Freeze-thaw stability","[1]; liver homogenate, QC 5.0 μg·mL^−1, three freeze-thaw cycles",103.8 ± 8.2%
same,"Remaining, Short-term stability","[1]; liver homogenate, QC 50.0 μg·mL^−1, 4°C for 4–24 h",95.4 ± 8.6%
same,"Remaining, Long-term stability","[1]; liver homogenate, QC 50.0 μg·mL^−1, 8 weeks at −70°C",100.9 ± 5.6%
same,"Remaining, Freeze-thaw stability","[1]; liver homogenate, QC 50.0 μg·mL^−1, three freeze-thaw cycles",99.0 ± 5.0%
same,"Remaining, Short-term stability","[1]; lung homogenate, QC 0.5 μg·mL^−1, 4°C for 4–24 h",91.2 ± 5.4%
same,"Remaining, Long-term stability","[1]; lung homogenate, QC 0.5 μg·mL^−1, 8 weeks at −70°C",97.6 ± 6.8%
same,"Remaining, Freeze-thaw stability","[1]; lung homogenate, QC 0.5 μg·mL^−1, three freeze-thaw cycles",95.8 ± 9.8%
same,"Remaining, Short-term stability","[1]; lung homogenate, QC 5.0 μg·mL^−1, 4°C for 4–24 h",96.8 ± 8.3%
same,"Remaining, Long-term stability","[1]; lung homogenate, QC 5.0 μg·mL^−1, 8 weeks at −70°C",89.8 ± 4.6%
same,"Remaining, Freeze-thaw stability","[1]; lung homogenate, QC 5.0 μg·mL^−1, three freeze-thaw cycles",91.9 ± 9.3%
same,"Remaining, Short-term stability","[1]; lung homogenate, QC 50.0 μg·mL^−1, 4°C for 4–24 h",95.6 ± 5.9%
same,"Remaining, Long-term stability","[1]; lung homogenate, QC 50.0 μg·mL^−1, 8 weeks at −70°C",91.6 ± 9.8%
same,"Remaining, Freeze-thaw stability","[1]; lung homogenate, QC 50.0 μg·mL^−1, three freeze-thaw cycles",96.9 ± 7.5%
same,"Remaining, Short-term stability","[1]; plasma, QC 0.5 μg·mL^−1, 4°C for 4–24 h",98.0 ± 6.2%
same,"Remaining, Long-term stability","[1]; plasma, QC 0.5 μg·mL^−1, 8 weeks at −70°C",100.0 ± 8.7%
same,"Remaining, Freeze-thaw stability","[1]; plasma, QC 0.5 μg·mL^−1, three freeze-thaw cycles",90.4 ± 5.9%
same,"Remaining, Short-term stability","[1]; plasma, QC 5.0 μg·mL^−1, 4°C for 4–24 h",96.0 ± 8.4%
same,"Remaining, Long-term stability","[1]; plasma, QC 5.0 μg·mL^−1, 8 weeks at −70°C",94.0 ± 6.8%
same,"Remaining, Freeze-thaw stability","[1]; plasma, QC 5.0 μg·mL^−1, three freeze-thaw cycles",92.8 ± 6.4%
same,"Remaining, Short-term stability","[1]; plasma, QC 35.0 μg·mL^−1, 4°C for 4–24 h",99.8 ± 3.3%
same,"Remaining, Long-term stability","[1]; plasma, QC 35.0 μg·mL^−1, 8 weeks at −70°C",97.0 ± 5.3%
same,"Remaining, Freeze-thaw stability","[1]; plasma, QC 35.0 μg·mL^−1, three freeze-thaw cycles",96.6 ± 5.5%
same,increase of P app (apical-to-basolateral) by Borneol,[2],2.9 fold
same,increase of P app (basolateral-to-apical) by Borneol,[2],2.9 fold
same,P app (apical to basolateral),[2]; [4],0.64 ± 0.08 × 10^−7 cm/s
same,P app (basolateral to apical),[2]; [4],0.68 ± 0.12 × 10^−7 cm/s
same,P app values,[2],less than 10^−6 cm/s
same,substrate of P-gp,[2],seemed not to be substrates of P-gp
same,E r,"[2]; efflux ratio P app(basolateral-apical)/P app(apical-basolateral), with or without 200 μM Borneol (see label)",1.06
same,Noncytotoxic concentration,Caco-2 cells,500 µM
"CC(C)=CCC[C@](C)(O[C@@H]1O[C@H](CO)[C@@H](O)[C@H](O)[C@H]1O)[C@H]1CC[C@]2(C)[C@@H]1[C@H](O)C[C@@H]1[C@@]3(C)CC[C@H](O)C(C)(C)[C@@H]3[C@@H](O[C@@H]3O[C@H](CO)[C@@H](O)[C@H](O)[C@H]3O[C@@H]3O[C@@H](C)[C@H](O)[C@@H](O)[C@H]3O)C[C@]12C [GRe, ginsenoside Re]","efflux ratio at 120 min, 500 μM","[3]; Caco-2, Caco-2 monolayers, read-out: efflux ratios (Er)",1 to 1.1
same,"efflux ratio at 120 min, 500 μM","[3]; Caco-2, efflux ratio P app(basolateral-apical)/P app(apical-basolateral), with or without 200 μM Borneol (see label), read-out: E r",1.05
same,"Papp A→B at 120 min, 500 μM","[3]; Caco-2 Model, 500 μM compound, with or without 200 μM Borneol (see label), read-out: P app (apical to basolateral)",0.546 ± 0.04 ×10⁻⁶ cm/s
same,"Papp B→A at 120 min, 500 μM","[3]; Caco-2 Model, 500 μM compound, with or without 200 μM Borneol (see label), read-out: P app (basolateral to apical)",0.573 ± 0.037 ×10⁻⁶ cm/s
same,increase of P app (apical-to-basolateral) by Borneol,[2],2.3 fold
same,increase of P app (basolateral-to-apical) by Borneol,[2],2.4 fold
same,P app values,[2],less than 10^−6 cm/s
same,substrate of P-gp,[2],seemed not to be substrates of P-gp
same,Noncytotoxic concentration,Caco-2 cells,500 µM
